Measured values from publication PMC7596085, “The pathogenic S688Y mutation in the ligand-binding domain of the GluN1 subunit regulates the properties of NMDA receptors” (Scientific Reports, 2020).
Read-outs that look alike come from different tables or passages of the source.

Tests used:
[1] = molecular target: T1, hippocampal neurons expressing YFP-hGluN1-1a (Rattus norvegicus, UniProt P35439, I267L/M415L/N159S/R212K); assay: NMDA-induced excitotoxicity, hippocampal neurons expressing YFP-hGluN1-1a; assay type: cell-based; details: 1 h treatment, measured 23 h later
T1 construct: expressed in transfected cells; host or cells: primary rat hippocampal neurons (E18 Wistar), lentiviral infection with shRNA knock-down of endogenous GluN1
Description: (§1) Excitotoxicity was measured 23 h after treatment by staining cells with the nuclear marker Hoechst 33,342 and then performing complex image analysis (Fig. 6a,b; see "Methods").
(§2) Excitotoxicity was induced as described previously. In brief, the cultured neurons were incubated overnight in 10% MEM (Thermo Fisher Scientific) and 90% salt-glucose (SG) medium containing 114 mM NaCl, 0.219% NaHCO3, 5.292 mM KCl, 1 mM MgCl2, 2 mM CaCl2, 10 mM HEPES, 30 mM glucose, […], and 0.1% phenol red. The following day, the media was replaced with 100% SG and the indicated concentrations of agonists/co-agonists were added to the neurons. […] Nuclear area was measured using ImageJ software (v. 1.52p), and custom-made macro scripts were used to automatically measure only the nuclei of infected cells (identified by YFP expression). […] The ratio of the number of cells in each group was then used to estimate the effects of mixing the two distributions and is expressed as the ratio of pyknotic and non-pyknotic cells. The percentage of pyknotic cells in each condition was then calculated as the number of cells classified as pyknotic divided by the total number of cells in that condition.

[2] = tested on: hippocampal neurons expressing YFP-hGluN1-1a-S688Y; assay: NMDA-induced excitotoxicity, hippocampal neurons expressing YFP-hGluN1-1a-S688Y; assay type: cell-based, rat; details: 1 h treatment, measured 23 h later
Description: as §1, §2

[3] = tested on: hippocampal neurons expressing YFP-hGluN1-1a
GluN1 S688A mutation = details: S688A mutation vs wild type; cited from earlier work
[4] = tested on: hippocampal neurons expressing YFP-hGluN1-1a-S688Y; details: 10 µM glycine together with 100 µM NMDA
hGluN1-4a-S688Y/hGluN3A = hGluN1-4a-S688Y/hGluN3A vs hGluN1-4a/hGluN3A, peak response
[5] = tested on: hippocampal neurons expressing YFP-hGluN1-1a-S688Y; details: steady-state concentration-response, in the presence of 1 mM NMDA
[6] = tested on: hippocampal neurons expressing YFP-hGluN1-1a; details: steady-state concentration-response, in the presence of 1 mM NMDA
[7] = 10 µM co-agonist in the presence of 100 µM NMDA

Row | SMILES | neuronal cell death (% of d.n., pyknotic nuclei) ([1]; 10 µM co-agonist alone) | neuronal cell death / excitotoxicity (% of d.n., pyknotic nuclei) [1, 7] | neuronal cell death (% of d.n., pyknotic nuclei) ([2]; 10 µM co-agonist alone) | neuronal cell death / excitotoxicity (% of d.n., pyknotic nuclei) [2, 7] | intracellular Ca2+ (Fura-2 F340/F380) ([3]; 10 µM glycine together with 100 µM NMDA) | intracellular Ca2+ (Fura-2 F340/F380) ([3]; 1000 µM glycine together with 100 µM NMDA) | reduction in glycine potency (GluN1 S688A mutation) | intracellular Ca2+ (Fura-2 F340/F380) [4] | decrease in glycine potency compared to wild-type receptors (hGluN1-4a-S688Y/hGluN3A) | EC50 [5] | Hill coefficient (h) [5] | EC50 ([5]; listed as Glycine) | EC50 [6] | Hill coefficient (h) [6] | EC50 ([6]; listed as Glycine)
1 | N[C@H](CO)C(=O)O [D-serine] | only a small degree of cell death | ~100% | only a small degree of cell death | significantly reduced cell death | – | – | – | – | – | – | – | – | – | – | –
2 | NCC(=O)O [glycine] | – | – | – | – | robust increase | robust increase | four-fold | no measurable effect | ~ twofold | 220 µM | 0.82 ± 0.06 | 219 ± 6.11 µM | 0.2 µM | 1.15 ± 0.05 | 0.17 ± 0.02 µM
